EC50 data for 43 molecules are collected here from US20160137639A1, “TRIAZOLE-ISOXAZOLE COMPOUND AND MEDICAL USE THEREOF” (JAPAN TOBACCO INC., priority 2012, published 2016).

For one test, the target named is T1, human RORγ (Homo sapiens, UniProt P51449).
T1 construct: human, NM_005060.3 and from Ser253 to Lys518; expressed in transfected cells; host or cells: CHO cells (transient co-transfection with pG5-Luc reporter)
T1 sequence (P51449 253-518): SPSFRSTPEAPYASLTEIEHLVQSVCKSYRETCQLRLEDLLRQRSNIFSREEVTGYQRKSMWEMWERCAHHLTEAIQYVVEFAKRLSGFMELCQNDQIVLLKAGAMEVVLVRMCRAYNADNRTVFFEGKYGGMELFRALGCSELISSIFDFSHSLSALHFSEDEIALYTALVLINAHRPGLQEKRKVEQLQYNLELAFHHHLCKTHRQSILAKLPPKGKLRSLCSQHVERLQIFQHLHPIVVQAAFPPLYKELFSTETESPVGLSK
Nature of the test: Luciferase reporter gene assay of inhibitory effect against RORγ transcriptional activity (GAL4-hRORγ plasmid in CHO cells). The format is cell-based. Conditions: read-out: LUC EC50 hRORg.

A further test addresses T2, mouse RORγ (Mus musculus, UniProt P51450).
T2 construct: mouse, NM_011281.2 and from Ile251 to Lys516; expressed in transfected cells; host or cells: CHO cells (transient co-transfection with pG5-Luc reporter)
T2 sequence (P51450 251-516): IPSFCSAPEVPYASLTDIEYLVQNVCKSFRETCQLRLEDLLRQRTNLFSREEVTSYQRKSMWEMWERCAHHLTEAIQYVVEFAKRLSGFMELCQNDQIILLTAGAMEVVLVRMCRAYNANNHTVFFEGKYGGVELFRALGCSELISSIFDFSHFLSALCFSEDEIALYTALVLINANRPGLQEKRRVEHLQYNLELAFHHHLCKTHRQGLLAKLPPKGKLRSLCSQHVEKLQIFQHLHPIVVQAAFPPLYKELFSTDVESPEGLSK
Nature of the test: Luciferase reporter gene assay of inhibitory effect against RORγ transcriptional activity (GAL4-mRORγ plasmid in CHO cells). The format is cell-based. Conditions: read-out: LUC EC50 mRORg. Put shortly: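 Readout is intracellular luciferase after 2-day compound exposure (8 concentrations, 0.1% DMSO) in CHO cells expressing GAL4 fused to mouse RORγ LBD residues Ile251–Lys516 plus pG5-Luc reporter. EC50 fitted from %-of-control; points showing resazurin-detected cytotoxicity dropped.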
On the technique in general: A reporter such as luciferase makes a cellular process visible.

As for `Cc1ccc(NC(=O)C[C@H](CC(C)C)c2nnc([C@H]3C[C@@H](CC(C)C)C3)n2C2CC2)c(C)c1` [Example F-590], the EC50 on human RORγ and at mouse RORγ was below 3 µM throughout.

For `Cc1ccc(NC(=O)C[C@H](CC(C)C)c2nnc(-c3cc(CC(C)C)no3)n2C2CC2)c(C)c1` [Example F-591], the concentration for a half-maximal effect (EC50) at human RORγ and on mouse RORγ was below 3 µM each time.

Consider `Cc1cc(F)ccc1NC(=O)[C@H]1CC(F)(F)C[C@@H]1c1nnc(-c2cc(CC(C)C)on2)n1C1CC1` [Example F-592], for which the EC50 at human RORγ and on mouse RORγ was below 3 µM each time.

Regarding `Cc1cc(F)ccc1NC(=O)[C@@H]1CC(F)(F)C[C@H]1c1nnc(-c2cc(CC(C)C)on2)n1C1CC1` [Example F-593], the EC50 (in general, the midpoint of the concentration-response curve) on human RORγ was above 3 µM; on mouse RORγ, below 3 µM.

In the case of `Cc1cc(F)ccc1NC(=O)C[C@H](CCO)c1nnc([C@H]2C[C@@H](CC(C)C)C2)n1C1CC1` [Example F-594], the EC50 on human RORγ and at mouse RORγ was below 3 µM in each case.

Consider `Cc1ccc(NC(=O)[C@H]2CN(CC(C)C)C[C@@H]2c2nnc([C@H]3C[C@@H](CC(C)C)C3)n2C2CC2)c(C)c1` [Example F-596], for which the EC50 on human RORγ and at mouse RORγ was below 3 µM in each case.

In the case of `Cc1ccc(NC(=O)[C@H]2CN(C(C)C)C[C@@H]2c2nnc([C@H]3C[C@@H](CC(C)C)C3)n2C2CC2)c(C)c1` [Example F-597], the EC50 on human RORγ and on mouse RORγ was below 3 µM throughout.

`Cc1ccc(NC(=O)C[C@@H](CC(C)(C)O)c2nnc([C@H]3C[C@@H](CC(C)C)C3)n2C2CC2)c(C)c1` [Example F-598]: the EC50 on human RORγ and on mouse RORγ was above 3 µM each time.

For `Cc1ccc(NC(=O)C[C@H](CC(C)(C)O)c2nnc([C@H]3C[C@@H](CC(C)C)C3)n2C2CC2)c(C)c1` [Example F-599], the EC50 on human RORγ and on mouse RORγ was below 3 µM throughout.

As for `CC(=O)N1C[C@H](C(=O)Nc2ccc(F)cc2C)[C@@H](c2nnc([C@H]3C[C@@H](CC(C)C)C3)n2C2CC2)C1` [Example F-600], the EC50 at human RORγ and at mouse RORγ was below 3 µM in each case.

On to `Cc1ccc(NC(=O)C[C@H](CCO)c2nnc(C3CC4(CCC(C)(C)CC4)C3)n2C2CC2)c(C)c1` [Example F-602], for which the EC50 on human RORγ and at mouse RORγ was below 3 µM in each case.

As to `CC(=O)N1C[C@H](C(=O)Nc2ccc(Cl)cc2C)[C@@H](c2nnc([C@H]3C[C@@H](CC(C)C)C3)n2C2CC2)C1` [Example F-603], the EC50 on human RORγ and at mouse RORγ was below 3 µM throughout.

Regarding `CC(=O)N1C[C@H](C(=O)Nc2ccc(Cl)cc2F)[C@@H](c2nnc([C@H]3C[C@@H](CC(C)C)C3)n2C2CC2)C1` [Example F-604], the EC50 at human RORγ and on mouse RORγ was below 3 µM each time.

`Cc1cc(Cl)ccc1NC(=O)C[C@H](CC(C)C)c1nnc(-c2cc(CC(C)C)on2)n1C1CC1` [Example F-606]: the EC50 on human RORγ and at mouse RORγ was below 3 µM in each case.

For the molecule `Cc1cc(F)ccc1NC(=O)C[C@H](CC(C)C)c1nnc(-c2cc(CC(C)C)on2)n1C1CC1` [Example F-607], the EC50 at human RORγ and on mouse RORγ was below 3 µM in each case.

For the molecule `Cc1cc(Cl)ccc1NC(=O)C[C@H](CCO)c1nnc(-c2cc(CC(C)(C)C)on2)n1C1CC1` [Example F-608], the EC50 at human RORγ and at mouse RORγ was below 3 µM in each case.

For the molecule `Cc1ccc(NC(=O)C[C@H](OCC(F)(F)F)c2nnc([C@H]3C[C@@H](CC(C)C)C3)n2C2CC2)c(C)c1` [Example F-609], the EC50 at human RORγ and at mouse RORγ was below 3 µM in each case.

Regarding `CC(=O)N1C[C@H](C(=O)Nc2ccc(Cl)cc2C)[C@@H](c2nnc(C3CC4(CCC(F)(F)CC4)C3)n2C2CC2)C1` [Example F-610], the EC50 at human RORγ and on mouse RORγ was below 3 µM throughout.

`CC(=O)N1C[C@H](C(=O)Nc2ccc(Cl)cc2C)[C@@H](c2nnc([C@H]3C[C@@H](CC(C)(C)F)C3)n2C2CC2)C1` [Example F-611]: the EC50 at human RORγ and on mouse RORγ was below 3 µM in each case.

Turning to `Cc1ccc(NC(=O)C[C@H](CCO)c2nnc(-c3cc(CC(C)(C)C)on3)n2C2CC2)c(C)c1` [Example F-612], the EC50 at human RORγ and on mouse RORγ was below 3 µM throughout.

Turning to `CC(=O)N1C[C@H](C(=O)Nc2ccc(Cl)cc2C)[C@@H](c2nnc(-c3cc(CC(C)C)on3)n2C2CC2)C1` [Example F-613], the EC50 on human RORγ and at mouse RORγ was below 3 µM in each case.

In the case of `Cc1cc(Cl)ccc1NC(=O)C[C@H](OC(C)C)c1nnc(-c2cc(CC(C)C)on2)n1C1CC1` [Example F-614], the EC50 on human RORγ and on mouse RORγ was below 3 µM in each case.

For `Cc1ccc(NC(=O)C[C@H](CCO)c2nnc(-c3cc(CCC(C)C)on3)n2C2CC2)c(C)c1` [Example F-615], the EC50 at human RORγ and at mouse RORγ was below 3 µM each time.

As for `Cc1cc(Cl)ccc1NC(=O)C[C@H](CCO)c1nnc(-c2cc(CCC(C)C)on2)n1C1CC1` [Example F-616], the EC50 on human RORγ and on mouse RORγ was below 3 µM throughout.

Consider `Cc1ccc(NC(=O)[C@H]2CN(C)C[C@@H]2c2nnc(-c3cc(CC(C)C)on3)n2C2CC2)c(C)c1` [Example F-618], for which the EC50 at human RORγ and at mouse RORγ was below 3 µM each time.

As to `Cc1ccc(NC(=O)C[C@H](CCO)c2nnc(C3CC4(CCC(F)(F)CC4)C3)n2C2CC2)c(C)c1` [Example F-619], the EC50 at human RORγ and at mouse RORγ was below 3 µM each time.

On to `CC(=O)N1C[C@H](C(=O)Nc2ccc(C)cc2C)[C@@H](c2nnc(C3CC4(CCC(F)(F)CC4)C3)n2C2CC2)C1` [Example F-620], for which the EC50 on human RORγ and at mouse RORγ was below 3 µM each time.

Consider `Cc1c(F)ccc(NC(=O)C[C@H](CCO)c2nnc([C@H]3C[C@@H](CC(C)C)C3)n2C2CC2)c1C` [Example F-623], for which the EC50 at human RORγ and at mouse RORγ was below 3 µM in each case.

In the case of `Cc1cc(Cl)ccc1NC(=O)C[C@H](CCO)c1nnc(C2CC3(CCC(F)(F)CC3)C2)n1C1CC1` [Example F-624], the EC50 at human RORγ and on mouse RORγ was below 3 µM throughout.

On to `Cc1ccc(NC(=O)C[C@H](CC(C)C)c2nnc(-c3cc(CC(C)(C)C)on3)n2C2CC2)c(C)c1` [Example F-625], for which the EC50 at human RORγ and at mouse RORγ was below 3 µM each time.

Turning to `Cc1cc(Cl)ccc1NC(=O)C[C@H](CC(C)C)c1nnc(-c2cc(CC(C)(C)C)on2)n1C1CC1` [Example F-626], the EC50 on human RORγ and on mouse RORγ was below 3 µM each time.

For the molecule `Cc1ccc(NC(=O)C[C@H](CC(C)C)c2nnc(-c3cc(CCC(C)C)on3)n2C2CC2)c(C)c1` [Example F-627], the EC50 on human RORγ and at mouse RORγ was below 3 µM each time.

For the molecule `Cc1cc(Cl)ccc1NC(=O)C[C@H](CC(C)C)c1nnc(-c2cc(CCC(C)C)on2)n1C1CC1` [Example F-628], the EC50 on human RORγ and at mouse RORγ was below 3 µM each time.

As to `Cc1ccc(NC(=O)C[C@H](OCC(F)(F)F)c2nnc(-c3cc(CC(C)C)on3)n2C2CC2)c(C)c1` [Example F-629], the EC50 on human RORγ and on mouse RORγ was below 3 µM in each case.

In the case of `Cc1cc(Cl)ccc1NC(=O)C[C@H](OCC(F)(F)F)c1nnc(-c2cc(CC(C)C)on2)n1C1CC1` [Example F-630], the EC50 on human RORγ and on mouse RORγ was below 3 µM in each case.

For `CC(=O)N1C[C@H](C(=O)Nc2ccc(C)cc2C)[C@@H](c2nnc(-c3cc(CC(C)(C)C)on3)n2C2CC2)C1` [Example F-631], the EC50 on human RORγ and on mouse RORγ was below 3 µM in each case.

Turning to `CC(=O)N1C[C@H](C(=O)Nc2ccc(C)cc2C)[C@@H](c2nnc(-c3cc(CCC(C)C)on3)n2C2CC2)C1` [Example F-632], the 50% effective concentration (EC50) at human RORγ and at mouse RORγ was below 3 µM throughout.

Take `Cc1c(NC(=O)C[C@H](OCC(F)(F)F)c2nnc(-c3cc(CC(C)C)on3)n2C2CC2)ccc(F)c1F` [Example F-633]: the EC50 on human RORγ and at mouse RORγ was below 3 µM in each case.

`Cc1c(F)ccc(NC(=O)C[C@H](OCC(F)(F)F)c2nnc(-c3cc(CC(C)C)on3)n2C2CC2)c1C` [Example F-634]: the EC50 on human RORγ and at mouse RORγ was below 3 µM each time.

With `Cc1ccc(NC(=O)C[C@H](CC(C)C)c2noc(-c3cc(CC(C)C)on3)c2C2CC2)c(C)c1` [Example F-635], the EC50 on human RORγ and on mouse RORγ was below 3 µM each time.

On to `Cc1ccc(NC(=O)C[C@H](CCC(=O)NS(C)(=O)=O)c2noc([C@H]3C[C@@H](CC(C)C)C3)c2C2CC2)c(C)c1` [Example F-636], for which the EC50 on human RORγ and at mouse RORγ was below 3 µM throughout.

Turning to `Cc1cc(F)ccc1NC(=O)C[C@H](CC(=O)NS(C)(=O)=O)c1noc([C@H]2C[C@@H](CC(C)C)C2)c1C1CC1` [Example F-637], the EC50 on human RORγ and on mouse RORγ was below 3 µM in each case.

On to `Cc1ccc(NC(=O)C[C@H](CC#N)c2noc([C@H]3C[C@@H](CC(C)C)C3)c2C2CC2)c(C)c1` [Example F-638], for which the EC50 on human RORγ and at mouse RORγ was below 3 µM throughout.
